Results on three molecules are retold here after patent US20240366661A1, “COMPOSITIONS FOR AND METHODS OF TREATING A SUBJECT HAVING INFLAMMATION” (The George Washington University, priority 2022, published 2024).

Entries after “also recorded” stand apart in the source; their conditions may differ.

Assay [1] deals with murine bone marrow derived macrophages (BMDMs). The assay is described as follows: QRT-PCR of M2 markers in bone marrow derived macrophages pre-treated with HDAC11 inhibitor and polarized to M2. It is filed as cell-based. Conditions: inhibitor 5 μM pre-treatment overnight prior to M2 polarization. The method, then:
(§1) Upon treatment with M-CSF, bone marrow-derived monocytes (BMDM) differentiate into naïve (M0) macrophages. In the case of peritoneal exudate macrophages (PEMs), naïve M0 macrophages are isolated from the peritoneal cavity. These M0 macrophages are pre-treated with HDAC11 inhibitor followed by polarization to M2 macrophages with IL4 and IL13 cytokines or other cytokine mix including but not limited to IL10 and TGF beta.
Next, HDAC11 inhibitors were evaluated for their ability to modulate the function of macrophages. […] These commercially available HDAC11 inhibitors were tested on macrophages in-vitro to identify their macrophage modulatory properties. Next, BMDMs were isolated and polarized towards M2 phenotype with HDAC11 inhibitor pre-treatment overnight.

The test system of assay [2] is peritoneal exudated macrophages (PEMs). The assay is described as follows: ELISA of IL-10 and TGFβ cytokines in peritoneal exudate macrophages treated with HDAC11 inhibitor. The class given is cell-based. As to conditions: dose-dependent.
From the text: as §1, with “beta. […] A chromatin immunoprecipitation assay further confirmed that HDAC11 binded preferentially to the distal promoter region of IL10, and negatively regulated its gene expression (FIG. 1B). […] This confirmed that the HDAC11 inhibitor was highly specific, and that it could recapitulate the effect of HDAC11 genetic knock down.” for “beta.”
Therefore, HDAC11 inhibitor treated M2 macrophages as a cell therapy and or topical HDAC11 inhibitor application are excellent to treat inflammatory diseases.

Another assay deals with T1, HDAC11 (Homo sapiens, UniProt Q96DB2).
T1 sequence (Q96DB2 1-347): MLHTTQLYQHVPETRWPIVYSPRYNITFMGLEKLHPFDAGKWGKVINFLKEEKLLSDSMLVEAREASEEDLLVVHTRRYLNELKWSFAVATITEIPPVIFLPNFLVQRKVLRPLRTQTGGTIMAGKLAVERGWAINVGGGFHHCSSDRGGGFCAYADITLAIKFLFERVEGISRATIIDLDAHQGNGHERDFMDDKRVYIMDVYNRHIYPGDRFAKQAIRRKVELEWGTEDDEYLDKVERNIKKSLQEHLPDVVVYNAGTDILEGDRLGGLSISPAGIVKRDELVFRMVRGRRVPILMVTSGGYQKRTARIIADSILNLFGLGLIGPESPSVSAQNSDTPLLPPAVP
As to conditions: literature statement; cited from earlier work.

Regarding `CC1(C)c2cccc(C(=O)NO)c2CN1c1cnc(C(F)(F)F)cn1` [FT895], in assay [1], the Arg1 expression entry is recorded as “did not affect”, the Fizz1 expression result is “further enhanced the expression of Fizz1” and the Mrc1 expression result was “did not affect”.
As to `COc1ccccc1NC(=O)NCc1ccc(C(=O)NO)cc1` [elevenostat], in assay [2], the “expression of IL-10 cytokine” value was “increased the expression of IL-10 and TGFβ cytokines in a dose-dependent manner; also recorded: dose dependent increase”; the “expression of TGFβ cytokine” value is “increased the expression of IL-10 and TGFβ cytokines in a dose-dependent manner; also recorded: dose dependent increase”.
On to `CCCCCCCCCCCCCCCCNNC(=O)c1cccs1` [SIS17], for which, in assay [1], the Arg1 expression result was “increased the expression of Arg1 and Mrc1”; the Fizz1 expression entry is reported as “further enhanced the expression of Fizz1”; the Mrc1 expression entry is “increased the expression of Arg1 and Mrc1”. Also, at HDAC11, the “inhibition of HDAC11 (demyristoylation activity; potency and selectivity)” value is reported as “inhibit the demyristoylation activity of HDAC11 without inhibiting other HDACs”.
